Data reported in patent publication US20260216294A1, “BETA 2-ADRENERGIC RECEPTOR AGONISTS FOR TREATMENT OR PREVENTION OF MUSCLE WASTING” (ATROGI AB, priority 2023, published 2026).

How the values were obtained:
L6-myotubes [1] = assay: Measurement of intracellular cAMP levels in differentiated L6-myotubes (Biological Example 3); format: cell-based; conditions: for Emax at 10 µM: 0.25 h
Summary of the method: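 Serum-starved differentiated L6 myotubes stimulated 15 min with test compound at 1×10^−5 M final (isoprenaline as reference) in HBSS with 1% BSA, 5 mM HEPES, 1 mM IBMX, pH 7.4. Cells EtOH-extracted, lysed, and intracellular cAMP measured by AlphaScreen.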

L6-myotubes [2] = assay: Glucose uptake in differentiated L6-myotubes (Biological Example 2); format: cell-based; conditions: for Emax at 10 µM: read-out: Biological example 2 (GU)
Summary of the method: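 Differentiated L6 myotubes were serum-starved overnight in 0.5% fatty-acid-free BSA and then stimulated with compound or isoprenaline at 1×10^−5 M final. After 1 h 40 min cells were washed and re-dosed in glucose-free medium. Twenty minutes later, uptake of 50 nM ^3H-2-deoxyglucose over 10 min was measured by scintillation counting of NaOH lysates.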

[3] = intracellular cAMP in differentiated L6-myotubes, compound at 10 μM, activity relative to isoproterenol at 10 μM
[4] = glucose uptake in differentiated L6-myotubes, compound at 10 μM, activity relative to isoproterenol at 10 μM
[5] = intracellular cAMP, compound at 10 μM relative to isoproterenol at 10 μM
[6] = glucose uptake, compound at 10 μM relative to isoproterenol at 10 μM

Row | SMILES | Emax at 10 µM (L6-myotubes [1]; [5]) [%] | Emax at 10 µM (L6-myotubes [2]; [6]) [%] | Emax at 10 µM (L6-myotubes [1]; [3]) [%] | Emax at 10 µM (L6-myotubes [2]; [4]) [%] | also measured
1 | CO[C@H]1CC[C@H](CCC23CCC([C@@H](O)c4cccc(F)c4)(CC2)N3)CC1 [Compound 410] | – | – | – | – | Biological example 3 (CAMP) (L6-myotubes [1]; [3]): − (if it less than 25% it is denoted with −); Biological example 2 (GU) (L6-myotubes [2]; [4]): ++ (if it is between 75 and 50% it is denoted with ++)
2 | CC1(C)CCC[C@H]([C@H](O)c2cccc(F)c2)N1 [Compound 102] | < 25 | 50 to 75 | – | – | –
3 | CS(=O)(=O)N(Cc1ccccc1)c1ccc(CC23CCC([C@H](O)c4cccc(F)c4)(CC2)N3)cc1 [Compound 473] | – | – | < 25 | 25 to 50 | –
4 | CC(C)(C)NC[C@H](O)c1cccc(C(F)(F)F)n1 [Compound 397, (S)-2-(tert-butylamino)-1-[6-(trifluoromethyl)-2-pyridyl]-1-ethanol] | – | – | < 25 | > 75 | –
5 | CC12CCC([C@H](O)c3cccc(Cl)c3)(CC1)N2 [Compound 197, (R)-(m-chlorophenyl)(4-methyl-7-azabicyclo[[2.2.1]]hept-1-yl)methanol] | < 25 | > 75 | – | – | –
6 | CC1(C)C[C@H]([C@H](O)c2cncc(F)c2)N1 [Compound 214] | – | – | < 25 | > 75 | –
7 | O[C@@H](CNC[C@H]1CC[C@@H](OCc2ccccc2)CC1)c1cccc(F)c1 [Compound 262, (R)-1-(m-fluorophenyl)-2-({[(1s,4S)-4-(benzyloxy)cyclohexyl]methyl}amino)-1-ethanol] | – | – | < 25 | 25 to 50 | –
8 | CNS(=O)(=O)[C@H]1CC[C@H](CC(C)(C)NC[C@H](O)c2cccc(F)c2)CC1 [Compound 476] | – | – | 25 to 50 | > 75 | –
9 | COc1ccc(CCC23CCC([C@@H](O)c4cncc(F)c4)(CC2)N3)cc1 [Compound 541, (S)-(5-fluoro-3-pyridyl){4-[2-(p-methoxyphenyl)ethyl]-7-azabicyclo[[2.2.1]]hept-1-yl}methanol] | – | – | < 25 | < 25 | –
10 | O[C@@H](CNC[C@H]1CC[C@H](O)CC1)c1cccc(F)c1 [Compound 272, (R)-1-(m-fluorophenyl)-2-({[(1r,4R)-4-hydroxycyclohexyl]methyl}amino)-1-ethanol] | – | – | < 25 | 25 to 50 | –
11 | CC(=O)N[C@H]1CC[C@H](CC(C)(C)NC[C@H](O)c2cccc(C#N)n2)CC1 [Compound 425] | – | – | 25 to 50 | > 75 | –
12 | CS(=O)(=O)N(Cc1ccccc1)[C@H]1CC[C@H](C[C@@H]2CC[C@H]([C@@H](O)c3cccc(F)c3)N2)CC1 [Compound 503, (S)-[(2R,5S)-5-({(1r,4S)-4-[(benzyl)-N-mesylamino]cyclohexyl}methyl)-2-pyrrolidinyl](m-fluorophenyl)methanol] | – | – | < 25 | < 25 | –
13 | O[C@@H](CNCC[C@H]1CC[C@H](O)CC1)c1cncc(F)c1 [Compound 294, (R)-1-(5-fluoro-3-pyridyl)-2-{2-[(1r,4R)-4-hydroxycyclohexyl]ethylamino}-1-ethanol] | – | – | < 25 | 25 to 50 | –
14 | CC(=O)N[C@H]1CC[C@H](CNC[C@H](O)c2cccc(F)c2)CC1 [Compound 308] | – | – | < 25 | 50 to 75 | –
15 | CC1(C)CC[C@H]([C@H](O)c2cccc(N)c2F)N1 [Compound 227, (R)-[(R)-5,5-dimethyl-2-pyrrolidinyl](3-amino-2-fluorophenyl)methanol] | – | – | < 25 | > 75 | –
16 | CC(C)(NC[C@H](O)c1cccc(F)c1)[C@H]1CC[C@H](C(=O)O)CC1 [Compound 368, (1R,4r)-8-[(R)-2-(m-fluorophenyl)-2-hydroxyethylamino]-7-hydroxy-p-menthan-7-one] | – | – | < 25 | 25 to 50 | –
17 | CCCCNCC(O)c1cc(Cl)c(N)c(C(F)(F)F)c1 (stereo not drawn) [Compound 32, 1-[4-amino-3-chloro-5-(trifluoromethyl)phenyl] -2-(butylamino)-1-ethanol] | 25 to 50 | > 75 | – | – | –
18 | CO[C@H]1CC[C@@H](CCCNC[C@H](O)c2cncc(F)c2)CC1 [Compound 260, (R)-1-(5-fluoro-3-pyridyl)-2-{3-[(1s,4R)-4-methoxycyclohexyl]propylamino}-1-ethanol] | – | – | < 25 | > 75 | –
19 | CC(=O)N[C@H]1CC[C@@H](CC(C)(C)NC[C@H](O)c2cccc(C#N)n2)CC1 [Compound 421] | – | – | < 25 | > 75 | –
20 | CS(=O)(=O)Nc1cccc(CC23CCC([C@@H](O)c4cccc(F)c4)(CC2)N3)c1 [Compound 515, (R)-(m-fluorophenyl)(4-{[m-(mesylamino)phenyl]methyl}-7-azabicyclo[[2.2.1]]hept-1-yl)methanol] | – | – | – | – | Biological example 3 (CAMP) (L6-myotubes [1]; [3]): + (if it is between 50 and 25% it is denoted with +); Biological example 2 (GU) (L6-myotubes [2]; [4]): ++ (if it is between 75 and 50% it is denoted with ++)

Row | SMILES | Emax at 10 µM (L6-myotubes [1]; [5]) [%] | Emax at 10 µM (L6-myotubes [2]; [6]) [%] | Emax at 10 µM (L6-myotubes [1]; [3]) [%] | Emax at 10 µM (L6-myotubes [2]; [4]) [%] | also measured
21 | CCCCNC[C@H](O)c1cccc(F)c1F [Compound 77, (R)-2-(butylamino)-1-(2,3-difluorophenyl)-1-ethanol] | < 25 | > 75 | – | – | –
22 | CCC[C@H]1CCC[C@H]([C@@H](O)c2ccc(F)c(F)c2)N1 [Compound 65] | < 25 | 25 to 50 | – | – | –
23 | CO[C@H]1CC[C@H](CCCNC[C@H](O)c2cccc(F)c2)CC1 [Compound 259, (R)-1-(m-fluorophenyl)-2-{3-[(1r,4S)-4-methoxycyclohexyl]propylamino}-1-ethanol] | – | – | < 25 | 25 to 50 | –
24 | O=C(N[C@H]1CC[C@H](CNC[C@H](O)c2cccc(F)c2)CC1)c1ccccc1 [Compound 315, N-[(1R,4r)-4-{[(R)-2-(m-fluorophenyl)-2-hydroxyethylamino]methyl}cyclohexyl] benzamide] | – | – | < 25 | > 75 | –
25 | CC1(C)CC[C@H]([C@H](O)c2cncc(F)c2)N1 [Compound 157, (R)-[(R)-5,5-dimethyl-2-pyrrolidinyl](5-fluoro-3-pyridyl)methanol] | < 25 | > 75 | – | – | –
26 | CCC[C@@H]1CC[C@H]([C@H](O)c2cccc(Cl)c2)N1 [Compound 141, (R)-[(2R,5R)-5-propyl-2-pyrrolidinyl](m-chlorophenyl)methanol] | < 25 | 50 to 75 | – | – | –
27 | CCC[C@H]1CCC[C@H]([C@H](O)c2ccccc2Cl)N1 [Compound 135, (R)-[(2R,6S)-6-propyl-2-piperidyl](o-chlorophenyl)methanol] | < 25 | 25 to 50 | – | – | –
28 | CC1(C)CC[C@@H]([C@H](O)c2cccc(F)c2)N1 [Compound 144] | < 25 | < 25 | – | – | –
29 | CC(C)(C[C@H]1CC[C@@H](S(N)(=O)=O)CC1)NC[C@H](O)c1cncc(F)c1 [Compound 519, (1S,4s)-4-{2-[(R)-2-(5-fluoro-3-pyridyl)-2-hydroxyethylamino]-2-methylpropyl} cyclohexanesulfonamide] | – | – | < 25 | > 75 | –
30 | O[C@@H](CNCC[C@H]1CC[C@@H](OCc2ccccc2)CC1)c1cccc(F)c1 [Compound 287, (R)-1-(m-fluorophenyl)-2-{2-[(1s,4S)-4-(benzyloxy)cyclohexyl]ethylamino}-1-ethanol] | – | – | < 25 | 50 to 75 | –
31 | CO[C@H]1CC[C@@H](CCC(C)(C)NC[C@H](O)c2cccc(F)c2)CC1 [Compound 264, (R)-2-{1,1-dimethyl-3-[(1s,4R)-4-methoxycyclohexyl]propylamino}-1-(m-fluorophenyl)-1-ethanol] | – | – | 25 to 50 | > 75 | –
32 | CC(C)(C[C@H]1CC[C@H](NC(=O)OC(C)(C)C)CC1)NC[C@H](O)c1cccc(F)c1 [Compound 420, (1R,4r)-4-{2-[(R)-2-(m-fluorophenyl)-2-hydroxyethylamino]-2-methylpropyl}cyclohexy-2-methyl-2-propanecarbamate] | – | – | 25 to 50 | 50 to 75 | –
33 | CCC[C@H]1CCC[C@H]([C@@H](O)c2ccccc2F)N1 [Compound 106, (S)-[(2R,6S)-6-propyl-2-piperidyl](o-fluorophenyl)methanol] | < 25 | 25 to 50 | – | – | –
34 | CCCCNC[C@H](O)c1ccc(F)cc1 [Compound 46, (R)-2-(butylamino)-1-(p-fluorophenyl)-1-ethanol] | < 25 | 50 to 75 | – | – | –
35 | O[C@H](c1cncc(F)c1)C12CCC(C/C=C/c3ccccc3)(CC1)N2 [Compound 530, (R)-{4-[(E)-3-phenyl-2-propenyl]-7-azabicyclo[[2.2.1]]hept-1-yl}(5-fluoro-3-pyridyl)methanol] | – | – | 25 to 50 | > 75 | –
36 | CCCCNC[C@H](O)c1cccc(F)c1 [Compound 47, (R)-2-(butylamino)-1-(m-fluorophenyl)-1-ethanol] | < 25 | 50 to 75 | – | – | –
37 | CC(=O)N[C@H]1CC[C@@H](C[C@@H]2CC[C@H]([C@H](O)c3cccc(F)c3)N2)CC1 [Compound 484] | – | – | < 25 | 50 to 75 | –
38 | O[C@@H](c1cccc(F)c1)C12CCC(CCc3ccc(OC(F)(F)F)cc3)(CC1)N2 [Compound 544, (S)-(m-fluorophenyl){4-[2-(p-trifluoromethoxyphenyl)ethyl]-7-azabicyclo[[2.2.1]]hept-1-yl}methanol] | – | – | < 25 | < 25 | –
39 | CC(=O)N[C@H]1CC[C@@H](CNC[C@H](O)c2cccc(F)c2)CC1 [Compound 307] | – | – | < 25 | 50 to 75 | –
